Species: Rattus norvegicus
Assay: DrugMatrix - Regimen: Daily Repeat
Format: toxicity, organism-based, Sprague-Dawley
Design: regimen Daily Repeat, gender Male, age 6-8 weeks
Details: in vivo, po, route oral GAVAGE, […]; for ABSOLUTE BASOPHIL / ABSOLUTE EOSINOPHIL / ABSOLUTE LYMPHOCYTE / ABSOLUTE MONOCYTE / ABSOLUTE SEGMENTED NEUTROPHIL / BASOPHIL / EOSINOPHIL / ERYTHROCYTE COUNT / HEMATOCRIT / HEMOGLOBIN / LEUKOCYTE COUNT / LYMPHOCYTE / MEAN CORPUSCULAR HEMOGLOBIN / MEAN CORPUSCULAR HEMOGLOBIN CONCENTRATION / MEAN CORPUSCULAR VOLUME / MONOCYTE / NEUTROPHIL / NUCLEATED RED BLOOD CELLS / PLATELET COUNT: tissue Blood; for ALANINE AMINOTRANSFERASE / ALBUMIN / ALKALINE PHOSPHATASE / ASPARTATE AMINOTRANSFERASE / BLOOD UREA NITROGEN / CARBON DIOXIDE / CHLORIDE / CHOLESTEROL / CREATINE PHOSPHOKINASE / CREATININE / GLUCOSE / LACTATE DEHYDROGENASE / LIPASE / PHOSPHORUS / POTASSIUM / SODIUM / TOTAL BILIRUBIN / TOTAL PROTEIN / URIC ACID: tissue Plasma
[1] = 2 mg/kg, 120 h, dose level High, time 5 day
[2] = 72 h, dose 0.58 mg/Kg, dose level Low, time 3 day
[3] = 120 h, dose 0.58 mg/Kg, dose level Low, time 5 day

## COc1ccc2c(c1)c(CC(=O)OCC(=O)O)c(C)n2C(=O)c1ccc(Cl)cc1 [ACEMETACIN]
[1]
  ABSOLUTE BASOPHIL: 0 CELLS/uL
  ABSOLUTE EOSINOPHIL: 198 CELLS/uL
  ABSOLUTE LYMPHOCYTE: 16941.67 CELLS/uL
  ABSOLUTE MONOCYTE: 330.33 CELLS/uL
  ABSOLUTE SEGMENTED NEUTROPHIL: 2163.33 CELLS/uL
  BASOPHIL: 0%
  EOSINOPHIL: 1%
  ERYTHROCYTE COUNT: 6.35 x10E6/uL
  HEMATOCRIT: 38.5%
  HEMOGLOBIN: 14.23 G/DL
  LEUKOCYTE COUNT: 19.63 x10E3/uL
  LYMPHOCYTE: 86.33%
  MEAN CORPUSCULAR HEMOGLOBIN: 22.47 pg
  MEAN CORPUSCULAR HEMOGLOBIN CONCENTRATION: 36.97 G/DL
  MEAN CORPUSCULAR VOLUME: 60.67 fL
  MONOCYTE: 1.67%
  NEUTROPHIL: 11%
  NUCLEATED RED BLOOD CELLS: 0 /100WBC
  PLATELET COUNT: 1196 x10E3/uL
  ALANINE AMINOTRANSFERASE: 77 u/L
  ALBUMIN: 4.33 G/DL
  ALKALINE PHOSPHATASE: 434 u/L
  ASPARTATE AMINOTRANSFERASE: 106.33 u/L
  BLOOD UREA NITROGEN: 15.33 mg/dL
  CARBON DIOXIDE: 26 mmol/L
  CHLORIDE: 102 MEQ/L
  CHOLESTEROL: 58 mg/dL
  CREATINE PHOSPHOKINASE: 673.33 u/L
  CREATININE: 0.19 mg/dL
  GLUCOSE: 155.33 mg/dL
  LACTATE DEHYDROGENASE: 783.33 u/L
  LIPASE: 10 u/L
  PHOSPHORUS: 11.9 mg/dL
  POTASSIUM: 6.17 MEQ/L
  SODIUM: 143.57 MEQ/L
  TOTAL BILIRUBIN: 0.2 mg/dL
  TOTAL PROTEIN: 5.87 G/DL
  URIC ACID: 1.93 mg/dL
[2]
  ABSOLUTE BASOPHIL: 0 CELLS/uL
  ABSOLUTE EOSINOPHIL: 126 CELLS/uL
  ABSOLUTE LYMPHOCYTE: 13647.33 CELLS/uL
  ABSOLUTE MONOCYTE: 360 CELLS/uL
  ABSOLUTE SEGMENTED NEUTROPHIL: 1833.33 CELLS/uL
  BASOPHIL: 0%
  EOSINOPHIL: 0.67%
  ERYTHROCYTE COUNT: 5.77 x10E6/uL
  HEMATOCRIT: 35.7%
  HEMOGLOBIN: 13.3 G/DL
  LEUKOCYTE COUNT: 15.97 x10E3/uL
  LYMPHOCYTE: 85.67%
  MEAN CORPUSCULAR HEMOGLOBIN: 23.07 pg
  MEAN CORPUSCULAR HEMOGLOBIN CONCENTRATION: 37.23 G/DL
  MEAN CORPUSCULAR VOLUME: 61.97 fL
  MONOCYTE: 2.33%
  NEUTROPHIL: 11.33%
  NUCLEATED RED BLOOD CELLS: 0 /100WBC
  PLATELET COUNT: 1055 x10E3/uL
  ALANINE AMINOTRANSFERASE: 66 u/L
  ALBUMIN: 3.93 G/DL
  ALKALINE PHOSPHATASE: 319 u/L
  ASPARTATE AMINOTRANSFERASE: 94 u/L
  BLOOD UREA NITROGEN: 16.33 mg/dL
  CARBON DIOXIDE: 27 mmol/L
  CHLORIDE: 102.33 MEQ/L
  CHOLESTEROL: 67.33 mg/dL
  CREATINE PHOSPHOKINASE: 359 u/L
  CREATININE: 0.19 mg/dL
  GLUCOSE: 160.33 mg/dL
  LACTATE DEHYDROGENASE: 379.33 u/L
  LIPASE: 9.67 u/L
  PHOSPHORUS: 11.53 mg/dL
  POTASSIUM: 6.9 MEQ/L
  SODIUM: 144.43 MEQ/L
  TOTAL BILIRUBIN: 0.2 mg/dL
  TOTAL PROTEIN: 5.37 G/DL
  URIC ACID: 1.47 mg/dL
[3]
  ABSOLUTE BASOPHIL: 0 CELLS/uL
  ABSOLUTE EOSINOPHIL: 113 CELLS/uL
  ABSOLUTE LYMPHOCYTE: 13989.33 CELLS/uL
  ABSOLUTE MONOCYTE: 257.33 CELLS/uL
  ABSOLUTE SEGMENTED NEUTROPHIL: 2073.67 CELLS/uL
  BASOPHIL: 0%
  EOSINOPHIL: 0.67%
  ERYTHROCYTE COUNT: 6.2 x10E6/uL
  HEMATOCRIT: 37.73%
  HEMOGLOBIN: 13.77 G/DL
  LEUKOCYTE COUNT: 16.43 x10E3/uL
  LYMPHOCYTE: 85.33%
  MEAN CORPUSCULAR HEMOGLOBIN: 22.23 pg
  MEAN CORPUSCULAR HEMOGLOBIN CONCENTRATION: 36.53 G/DL
  MEAN CORPUSCULAR VOLUME: 60.93 fL
  MONOCYTE: 1.67%
  NEUTROPHIL: 12.33%
  NUCLEATED RED BLOOD CELLS: 0 /100WBC
  PLATELET COUNT: 1216 x10E3/uL
  ALANINE AMINOTRANSFERASE: 65.33 u/L
  ALBUMIN: 4.53 G/DL
  ALKALINE PHOSPHATASE: 452 u/L
  ASPARTATE AMINOTRANSFERASE: 90.33 u/L
  BLOOD UREA NITROGEN: 19.67 mg/dL
  CARBON DIOXIDE: 26.67 mmol/L
  CHLORIDE: 105 MEQ/L
  CHOLESTEROL: 58.33 mg/dL
  CREATINE PHOSPHOKINASE: 293.67 u/L
  CREATININE: 0.22 mg/dL
  GLUCOSE: 163.33 mg/dL
  LACTATE DEHYDROGENASE: 355 u/L
  LIPASE: 9 u/L
  PHOSPHORUS: 11.6 mg/dL
  POTASSIUM: 6.5 MEQ/L
  SODIUM: 145.13 MEQ/L
  TOTAL BILIRUBIN: 0.13 mg/dL
  TOTAL PROTEIN: 6.27 G/DL
  URIC ACID: 1.97 mg/dL

Source: ChEMBL document CHEMBL3885881, “DrugMatrix”
